# Measurements taken from EPA's ToxValDB 9.5 (doi:10.2903/j.efsa.2012.2496).
# Legend:
# Canidae = conditions: oral, Dog Other, organ weight
# Mus musculus = conditions: subchronic; duration: 90 days; oral; organ weight
# Oryctolagus sp. = conditions: developmental; development
structure (smiles),measurement,setting,value
C=CCSC(=O)n1c(N)c(-c2ccccc2C)c(=O)n1C(C)C [Fenpyrazamine],NOAEL,"Canidae; chronic, duration: 1 years",25 mg/kg-day
same,NOAEL,"Canidae; subchronic, duration: 90 days",25 mg/kg-day
same,LC50,"Colinus virginianus; acute, oral, diet, mortality",> 954 mg/kg-day
same,LD50,"Colinus virginianus; acute, oral, mortality",> 2000 mg/kg-day
same,NOEC,Colinus virginianus; reproduction developmental,82.9 mg/kg-day
same,NOAEL,Mus musculus,28 mg/kg-day
same,NOAEL,Oryctolagus sp.,30 mg/kg-day
same,LD50,"Rattus norvegicus; acute, oral, mortality",> 2000 mg/kg-day
same,NOAEL,"Rattus norvegicus; chronic, duration: 2 years, M, histopathology: nonneoplastic",12.7 mg/kg-day
same,NOAEL,"Rattus norvegicus; reproduction developmental, F, organ weight",20.3 mg/kg-day
same,NOAEL,"Rattus norvegicus; reproduction developmental, M, organ weight",20 mg/kg-day
same,NOEL,"Rattus norvegicus; reproduction developmental, body weight",28.5 mg/kg-day
